This note sets out measurements from patent publication US20250051375A1, “ANTI-HIV COMPOUNDS” (Gilead Sciences, Inc., priority 2023, published 2025).

Each structure is given as a SMILES string. ≈ marks a conversion by molar mass, not a printed value. Read-outs that look alike come from different tables or passages of the source. A value given as a limit tells only on which side of the number the result lay.

In general, solubility refers to the concentration that dissolves in the medium under given conditions. Lower therefore signals little dissolved substance. In general, EC50 refers to the concentration at which the effect is half-maximal.

One series is described as follows: PBS Stability Assay. It counts as physicochemical. Conditions: phosphate buffered saline pH 7.4; for half-life at 2 μM: buffer, pH 7.4, 2 μM, read-out: PBS T½. In short, it runs like this:
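Test compound at 2 μM final was incubated in PBS, pH 7.4, and sampled at 0, 10, 20, 30, 60 and 120 min into acetonitrile/1% formic acid quench with labetalol internal standard. Remaining compound was quantified by LC-MS peak-area ratio, and half-life came from a first-order exponential fit.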

The nature of the next series: Solubility in FaSSIF. Conditions: for solubility at 2 h: 23 °C, pH 6.5, fassif, thermodynamic from solid. The procedure, abridged: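 Concentration measured by HPLC-UV after solid compound was dosed at 5 mg/mL into pH 6.5 fasted-state simulated intestinal fluid containing taurocholate and lecithin (4:1 molar) and vortexed.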
A further series concerns HIV-1 IIIB strain. Nature of the series: MT-4 HIV Wild Type Virus Infection Assay (IIIB Virus). It counts as cell-based. Conditions: MT-4 cells acutely infected with HIV-1 IIIB, 5 day incubation, Cell-titer glo. The procedure, abridged:
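MT-4 cells at 2×10^6 cells/ml in RPMI/10% FBS were acutely infected with HIV-1 IIIB for 1 h at 37° C, diluted 25× and added to serially diluted compounds. After 5 days at 37° C, viability read by CellTiter-Glo luminescence; EC50 from dose-response curves.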

Series [1] deals with bovine intestinal alkaline phosphatase (Bos taurus (Bovine), UniProt P19111). Nature of the series: BiALP: conversion by bovine intestinal alkaline phosphatase. The series is classed as in vitro ADME. Conditions: 2 μM substrate, 100 ng/mL iALP, Tris pH 7.8, 37° C., 60 minutes; for [Intermediate A] or [Amprenavir]: parent formed. In short, it runs like this: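 Compounds at 2 μM final were incubated 60 min at 37° C in 0.1 M Tris-HCl pH 7.8 with 1 mM MgCl2 and 1 mM ZnCl2, with or without 100 ng/mL iALP (0.01 units/mL). Samples were quenched with acetonitrile/formic acid containing labetalol. Conversion was quantified by LC-MS peak area ratios against a 2 μM product standard.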
bovine intestinal alkaline phosphatase, sequence (P19111 20-506): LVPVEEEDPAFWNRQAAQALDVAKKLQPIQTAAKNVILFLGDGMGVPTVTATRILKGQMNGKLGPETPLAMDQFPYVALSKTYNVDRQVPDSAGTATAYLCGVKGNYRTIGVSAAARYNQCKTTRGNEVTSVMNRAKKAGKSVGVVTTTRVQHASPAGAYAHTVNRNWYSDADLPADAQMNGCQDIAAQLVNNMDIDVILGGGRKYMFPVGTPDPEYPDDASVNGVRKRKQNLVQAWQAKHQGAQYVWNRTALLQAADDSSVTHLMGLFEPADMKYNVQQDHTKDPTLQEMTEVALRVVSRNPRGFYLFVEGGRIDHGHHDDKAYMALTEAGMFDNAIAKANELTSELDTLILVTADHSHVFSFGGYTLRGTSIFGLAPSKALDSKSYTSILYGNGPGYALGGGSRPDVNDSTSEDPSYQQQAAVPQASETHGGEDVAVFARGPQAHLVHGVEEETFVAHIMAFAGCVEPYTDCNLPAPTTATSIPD

[2] abbreviates: Human immunodeficiency virus 1, IIIB, MT4, 120 h.

Consider `COC(=O)N[C@H](C(=O)N[C@@H](Cc1ccc(C#Cc2cnc(N3CC4CCC(C3)N4C3COC3)nc2)cc1)[C@H](CN(Cc1c(F)cc(-c2ccn(C(F)F)n2)cc1F)NC(=O)[C@@H](NC(=O)OC)C(C)(C)C(F)(F)F)OC(=O)CC(C)(C)c1c(CC(=O)NC(CC(=O)O)CC(=O)O)cc(C)cc1OP(=O)(O)O)C(C)(C)C(F)(F)F` [Example 43], for which the half-life at 2 μM in “PBS Stability Assay” was determined as 289 min. For the same molecule, in “Solubility in FaSSIF”, the solubility at 2 h turned out to be 1920 µg/mL (≈ 1190 µM). Besides, it took 85.9 nM to reach a half-maximal effect in the series with HIV-1 IIIB strain (setting [2]) (EC50). The “[Compound]” value in series [1] is listed as 1661.5 nM.

Take `COC(=O)N[C@H](C(=O)N[C@@H](Cc1ccc(C#Cc2cnc(N3CC4CCC(C3)N4C3COC3)nc2)cc1)[C@H](CN(Cc1c(F)cc(-c2ccn(C(F)F)n2)cc1F)NC(=O)[C@@H](NC(=O)OC)C(C)(C)C(F)(F)F)OC(=O)CC(C)(C)c1c(CC(=O)N(CCC(=O)O)[C@@H](CCC(=O)O)C(=O)O)cc(C)cc1OP(=O)(O)O)C(C)(C)C(F)(F)F` [Example 44]: the half-life at 2 μM in the series “PBS Stability Assay” turned out to be 280 min. Moreover, the solubility at 2 h in the series “Solubility in FaSSIF” was found to be 4550 µg/mL (≈ 2700 µM). Besides, in the series with HIV-1 IIIB strain (setting [2]), a half-maximal effect (EC50) was put at 528 nM. The “[Compound]” value in series [1] is given as 1835.9 nM.

On to `COC(=O)N[C@H](C(=O)N[C@@H](Cc1ccc(C#Cc2cnc(N3CC4CCC(C3)N4C3COC3)nc2)cc1)[C@H](CN(Cc1c(F)cc(-c2ccn(C(F)F)n2)cc1F)NC(=O)[C@@H](NC(=O)OC)C(C)(C)C(F)(F)F)OC(=O)CC(C)(C)c1c(CC(=O)N[C@@H](Cc2c[nH]c3ccccc23)C(=O)O)cc(C)cc1OP(=O)(O)O)C(C)(C)C(F)(F)F` [Example 48], for which the half-life at 2 μM in “PBS Stability Assay” worked out at 285 min. The molecule also showed a solubility at 2 h in “Solubility in FaSSIF” of 910 µg/mL (≈ 545 µM). In addition, the EC50 in the series with HIV-1 IIIB strain (setting [2]) stood at 201 nM. For the same molecule, the “[Compound]” value in series [1] stood at 2071.6 nM.

`COC(=O)N[C@H](C(=O)N[C@@H](Cc1ccc(C#Cc2cnc(N3CC4CCC(C3)N4C3COC3)nc2)cc1)[C@H](CN(Cc1c(F)cc(-c2ccn(C(F)F)n2)cc1F)NC(=O)[C@@H](NC(=O)OC)C(C)(C)C(F)(F)F)OC(=O)CC(C)(C)c1c(CC(=O)NCc2ccc(C(F)F)cc2)cc(C)cc1OP(=O)(O)O)C(C)(C)C(F)(F)F` [Example 50, (5S,10S,11S,14S)-8-(4-(1-(difluoromethyl)-1H-pyrazol-3-yl)-2,6-difluorobenzyl)-11-(4-((2-(8-(oxetan-3-yl)-3,8-diazabicyclo[3.2.1]octan-3-yl)pyrimidin-5-yl)ethynyl)benzyl)-3,6,13,16-tetraoxo-5,14-bis(1,1,1-trifluoro-2-methylpropan-2-yl)-2,17-dioxa-4,7,8,12,15-pentaazaoctadecan-10-yl 3-(2-(2-((4-(difluoromethyl)benzyl)amino)-2-oxoethyl)-4-methyl-6-(phosphonooxy)phenyl)-3-methylbutanoate]: in the series “PBS Stability Assay”, the half-life at 2 μM is 496 min. In the series “Solubility in FaSSIF”, the solubility at 2 h is less than 1000 µg/mL. In addition, the EC50 in the series with HIV-1 IIIB strain (setting [2]) was 1720 nM. In addition, in series [1], the “[Compound]” value came out at 2228.1 nM, the “biALP Intermediate A or [Amprenavir] (% of total)” value is given as 0 % of total and the “[Intermediate A] or [Amprenavir]” value came to 0.3 nM.

In the case of `COC(=O)N[C@H](C(=O)N[C@@H](Cc1ccc(C#Cc2cnc(N3CC4CCC(C3)N4C3COC3)nc2)cc1)[C@H](CN(Cc1c(F)cc(-c2ccn(C(F)F)n2)cc1F)NC(=O)[C@@H](NC(=O)OC)C(C)(C)C(F)(F)F)OC(=O)O[C@H](C)OC(=O)CC(C)(C)c1c(CC(=O)O)cc(C)cc1OP(=O)(O)O)C(C)(C)C(F)(F)F` [Example 65], the “PBS T½” value in the series “PBS Stability Assay” (2 μM) is reported as 668.9 min. Besides, in “Solubility in FaSSIF” (FaSSIF pH 6.5, dose 5 mg/mL, 2-hour incubation, ambient temperature), the “FaSSIF (pH 6.5) solubility” value was 1310 μg/mL. Also, the EC50 in the series on HIV-1 IIIB strain (read-out: EC50) stood at 12.6 nM. For the same molecule, in series [1], the “[Compound]” value was 1224.6 nM.

As to `COC(=O)N[C@H](C(=O)N[C@@H](Cc1ccc(C#Cc2cnc(N3CC4CCC(C3)N4C3COC3)nc2)cc1)[C@H](CN(Cc1c(F)cc(-c2ccn(C(F)F)n2)cc1F)NC(=O)[C@@H](NC(=O)OC)C(C)(C)C(F)(F)F)OC(=O)CC(C)(C)c1c(CC(=O)N2CC(C(=O)O)CC(C(=O)O)C2)cc(C)cc1OP(=O)(O)O)C(C)(C)C(F)(F)F` (stereo partly shown) [Example 67], the half-life at 2 μM in “PBS Stability Assay” is 259 min. This molecule had a solubility at 2 h in the series “Solubility in FaSSIF” of 3160 µg/mL (≈ 1930 µM). The molecule also gave an EC50 in the series on HIV-1 IIIB strain (setting [2]) of 205 nM. In series [1], the “[Compound]” value is recorded as 1747.2 nM, the “biALP Intermediate A or [Amprenavir] (% of total)” value is 9.1 % of total and the “[Intermediate A] or [Amprenavir]” value stood at 175.4 nM.
